Results: patent publication US20260109694A1, “HETEROCYCLIC COMPOUNDS AND USES THEREOF” (Kumquat Biosciences Inc., priority 2023, published 2026)

Experiments:
[1] = molecular target: T1, PTP1B (Homo sapiens, UniProt P18031); test: Phosphatase activity assay (DiFMUP substrate); format: biochemical; conditions: value bin printed in column head
T1 sequence (P18031 1-435): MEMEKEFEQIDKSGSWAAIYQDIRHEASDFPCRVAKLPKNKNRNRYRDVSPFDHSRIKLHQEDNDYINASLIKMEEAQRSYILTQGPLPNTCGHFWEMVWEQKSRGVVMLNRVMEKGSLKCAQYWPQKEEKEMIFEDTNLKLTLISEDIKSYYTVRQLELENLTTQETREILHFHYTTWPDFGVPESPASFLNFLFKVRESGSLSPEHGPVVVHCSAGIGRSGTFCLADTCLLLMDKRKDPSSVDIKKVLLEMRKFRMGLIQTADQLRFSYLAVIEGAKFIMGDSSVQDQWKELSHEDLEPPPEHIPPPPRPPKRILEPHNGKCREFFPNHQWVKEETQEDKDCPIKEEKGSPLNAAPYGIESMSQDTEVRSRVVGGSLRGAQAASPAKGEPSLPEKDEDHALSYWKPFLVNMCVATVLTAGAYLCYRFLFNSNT
Experimental: (§1) The selectivity and potency of a small molecule PTPN2 inhibitor as provided herein against one or more protein tyrosine phosphatase (PTP) enzymes, and specifically against PTPN2, is assessed in various ways. The one or more PTP enzymes comprise Mycobacterium protein tyrosine phosphatase A (mPTPA), Mycobacterium protein tyrosine phosphatase B (mPTPB), PTPN1 (i.e., PTP1B), PTPN2 (i.e., TC-PTP), PTPN22 (i.e., LYP), SHP-1, SHP-2, FAP-1, Meg2, HePTP, Laforin, VHX, VHR, LMWPTP, Cdc14A, LAR, CD45, PTPRG, a fragment thereof, a variant thereof, and a combination thereof. Selectivity and potency of a small molecule PTPN2 inhibitor is evaluated using a PTP activity inhibition assay. The assay is performed using a buffer comprising 50 mM HEPES buffer pH 7.5, 150 mM NaCl, 0.5 mM EDTA, 1 mM DTT, 0.001% Tween-20.
(§2) The assay is performed using a phosphated substrate, e.g., 10 mM 6,8-Difluoro-4-Methylumbelliferyl Phosphate (DIFMUP) that is stored at −20° C. Alternatively or in addition to, the assay is performed using other phosphated substrate (e.g., fluorescein diphosphate). Each PTP enzyme is diluted in the assay buffer
(§3) The assay can be carried out at room temperature in multiplate format, e.g., using 384 well plates. A small molecule PTPN2 inhibitor dissolved in DMSO at one of 10 concentrations from a serial dilution or DMSO alone for control is added to each well. A mixture of the assay buffer comprising PTP enzyme (e.g., 0.025 ng/ul PTPN2) is added to each well and mixed for approximately 2 minutes. The reaction is initiated by adding DiFMUP diluted in the assay buffer to a final concentration of approximately 45 µM DiFMUP in PTPN2 assay. For each PTP enzyme, DiFMUP is added at the Km (Michaelis constant) of the enzyme that had been independently determined. The phosphatase activity of the PTP enzyme is assessed by monitoring appearance of a fluorescent product (6,8-difluoro-7-hydroxyl-4-coumarin (DiFMU) from DiFMUP) continuously for about 15 to 30 minutes, using the INFINITE M1000Pro plate reader (Tecan) with excitation at 360 nm and emission at 450 nm (cutoff filter at 435 nm) for DiFMU. Each assay is performed at least in duplicate. The rate (e.g., the initial rate) of DiFMU formation is plotted against the concentration of the small molecule PTPN2 inhibitor, and the data is fitted (e.g., using a 4-parameter equation) to determine the inflection point of the fit as the IC50 of the small molecule PTPN2 inhibitor for a specific enzyme. Utilizing this assay, the ability of the compounds in Table 1 to inhibit PTPN2 and PTP1B has been assessed. Table 3 summarizes the IC50 values.

[2] = molecular target: T2, PTPN2 (Homo sapiens, UniProt P17706); test: Phosphatase activity assay (DiFMUP substrate); format: biochemical; conditions: value bin printed in column head
T2 sequence (P17706 1-415): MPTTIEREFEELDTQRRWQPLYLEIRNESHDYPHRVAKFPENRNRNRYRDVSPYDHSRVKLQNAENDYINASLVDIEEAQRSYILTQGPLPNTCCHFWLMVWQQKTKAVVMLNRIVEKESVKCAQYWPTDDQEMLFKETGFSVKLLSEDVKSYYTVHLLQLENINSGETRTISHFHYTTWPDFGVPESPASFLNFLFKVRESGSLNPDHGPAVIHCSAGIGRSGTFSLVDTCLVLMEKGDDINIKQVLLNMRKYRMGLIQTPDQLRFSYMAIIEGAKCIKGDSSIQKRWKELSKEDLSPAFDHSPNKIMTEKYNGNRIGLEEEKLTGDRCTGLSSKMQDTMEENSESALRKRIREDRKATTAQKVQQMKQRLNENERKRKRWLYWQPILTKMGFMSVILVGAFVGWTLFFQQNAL
Experimental: as §1, §2, §3

Row | SMILES | IC50 [1] | IC50 [2]
1 | CC(=O)OC(C)OC(=O)N1CC(c2ccc(O)c(N3CC(=O)NS3(=O)=O)c2F)=C[C@H]1CCC1CC1 (stereo partly drawn) [Compound 121, 1-acetoxyethyl (2R)-2-(2-cyclopropylethyl)-4-(3-(1,1-dioxido-4-oxo-1,2,5-thiadiazolidin-2-yl)-2-fluoro-4-hydroxyphenyl)-2,5-dihydro-1H-pyrrole-1-carboxylate] | ≤ 1000 nM | ≤ 1000 nM
2 | O=C1CN(c2c(O)ccc(CC3CCCNC3)c2F)S(=O)(=O)N1 (centres unmarked) [Compound 122, 5-(2-fluoro-6-hydroxy-3-(piperidin-3-ylmethyl)phenyl)-1,2,5-thiadiazolidin-3-one 1,1-dioxide] | ≤ 1000 nM | ≤ 1000 nM
3 | O=C1CN(c2c(O)ccc(C3=CC(CCCC4CC4)NC3)c2F)S(=O)(=O)N1 (centres unmarked) [Compound 123, 5-(3-(5-(3-cyclopropylpropyl)-2,5-dihydro-1H-pyrrol-3-yl)-2-fluoro-6-hydroxyphenyl)-1,2,5-thiadiazolidin-3-one 1,1-dioxide] | ≤ 1000 nM | ≤ 1000 nM
4 | O=C1CN(c2c(O)ccc(C(=O)NC3CNC3)c2F)S(=O)(=O)N1 [Compound 124, N-(azetidin-3-yl)-3-(1,1-dioxido-4-oxo-1,2,5-thiadiazolidin-2-yl)-2-fluoro-4-hydroxybenzamide] | > 1000 nM | > 1000 nM
5 | O=C1CN(c2c(O)ccc(C3=CC(C4CCC4)NC3)c2F)S(=O)(=O)N1 (centres unmarked) [Compound 125, 5-(3-(5-cyclobutyl-2,5-dihydro-1H-pyrrol-3-yl)-2-fluoro-6-hydroxyphenyl)-1,2,5-thiadiazolidin-3-one 1,1-dioxide] | ≤ 1000 nM | ≤ 1000 nM
6 | O=C1CN(c2c(O)ccc(C3=CC(CC4CCC4)NC3)c2F)S(=O)(=O)N1 (centres unmarked) [Compound 126, 5-(3-(5-(cyclobutylmethyl)-2,5-dihydro-1H-pyrrol-3-yl)-2-fluoro-6-hydroxyphenyl)-1,2,5-thiadiazolidin-3-one 1,1-dioxide] | ≤ 1000 nM | ≤ 1000 nM
7 | O=C1CN(c2c(O)ccc(CC3CCNCC3)c2F)S(=O)(=O)N1 [Compound 127, 5-(2-fluoro-6-hydroxy-3-(piperidin-4-ylmethyl)phenyl)-1,2,5-thiadiazolidin-3-one 1,1-dioxide] | ≤ 1000 nM | ≤ 1000 nM
8 | O=C1CN(c2c(O)cc(C3=CCNC3)cc2F)S(=O)(=O)N1 [Compound 128, 5-(4-(2,5-dihydro-1H-pyrrol-3-yl)-2-fluoro-6-hydroxyphenyl)-1,2,5-thiadiazolidin-3-one 1,1-dioxide] | ≤ 1000 nM | ≤ 1000 nM
9 | CCC[C@H]1C=C(c2ccc(O)c(N3CC(=O)NS3(=O)=O)c2F)CN1 [Compound 129, (S)-5-(2-fluoro-6-hydroxy-3-(5-propyl-2,5-dihydro-1H-pyrrol-3-yl)phenyl)-1,2,5-thiadiazolidin-3-one 1,1-dioxide] | ≤ 1000 nM | ≤ 1000 nM
10 | O=C1CN(c2c(O)ccc(C3=C[C@H](CCC4CC4)NC3)c2F)S(=O)(=O)N1 [Compound 130, (S)-5-(3-(5-(2-cyclopropylethyl)-2,5-dihydro-1H-pyrrol-3-yl)-2-fluoro-6-hydroxyphenyl)-1,2,5-thiadiazolidin-3-one 1,1-dioxide] | ≤ 1000 nM | ≤ 1000 nM
11 | O=C1CN(c2c(O)ccc(C3=CC(CO)CC3)c2F)S(=O)(=O)N1 (centres unmarked) [Compound 131, 5-(2-fluoro-6-hydroxy-3-(3-(hydroxymethyl)cyclopent-1-en-1-yl)phenyl)-1,2,5-thiadiazolidin-3-one 1,1-dioxide] | ≤ 1000 nM | ≤ 1000 nM
12 | O=C1CN(c2c(O)cc(C3=CCCNC3)cc2F)S(=O)(=O)N1 [Compound 132, 5-(2-fluoro-6-hydroxy-4-(1,2,5,6-tetrahydropyridin-3-yl)phenyl)-1,2,5-thiadiazolidin-3-one 1,1-dioxide] | ≤ 1000 nM | ≤ 1000 nM
13 | O=C1CN(c2c(O)ccc(C3=CC(CCC(F)(F)F)NC3)c2F)S(=O)(=O)N1 (centres unmarked) [Compound 133, 5-(2-fluoro-6-hydroxy-3-(5-(3,3,3-trifluoropropyl)-2,5-dihydro-1H-pyrrol-3-yl)phenyl)-1,2,5-thiadiazolidin-3-one 1,1-dioxide] | ≤ 1000 nM | ≤ 1000 nM
14 | O=C1CN(c2c(O)ccc(C3=C[C@H](CCC4CCC4)NC3)c2F)S(=O)(=O)N1 [Compound 134, (S)-5-(3-(5-(2-cyclobutylethyl)-2,5-dihydro-1H-pyrrol-3-yl)-2-fluoro-6-hydroxyphenyl)-1,2,5-thiadiazolidin-3-one 1,1-dioxide] | ≤ 1000 nM | ≤ 1000 nM
15 | O=C1CN(c2c(O)ccc(C3=CCC(CO)C3)c2F)S(=O)(=O)N1 (centres unmarked) [Compound 135, 5-(2-fluoro-6-hydroxy-3-(4-(hydroxymethyl)cyclopent-1-en-1-yl)phenyl)-1,2,5-thiadiazolidin-3-one 1,1-dioxide] | ≤ 1000 nM | ≤ 1000 nM
16 | O=C1CN(c2c(O)ccc(C(=O)NC3CCNC3)c2F)S(=O)(=O)N1 (centres unmarked) [Compound 136, 3-(1,1-dioxido-4-oxo-1,2,5-thiadiazolidin-2-yl)-2-fluoro-4-hydroxy-N-(pyrrolidin-3-yl)benzamide] | > 1000 nM | > 1000 nM
17 | O=C1CN(c2c(O)ccc(C3=CC(CCCC(F)F)NC3)c2F)S(=O)(=O)N1 (centres unmarked) [Compound 137, 5-(3-(5-(4,4-difluorobutyl)-2,5-dihydro-1H-pyrrol-3-yl)-2-fluoro-6-hydroxyphenyl)-1,2,5-thiadiazolidin-3-one 1,1-dioxide] | ≤ 1000 nM | ≤ 1000 nM
18 | O=C1CN(c2c(O)cc(C3CCCNC3)cc2F)S(=O)(=O)N1 (centres unmarked) [Compound 138, 5-(2-fluoro-6-hydroxy-4-(piperidin-3-yl)phenyl)-1,2,5-thiadiazolidin-3-one 1,1-dioxide] | ≤ 1000 nM | ≤ 1000 nM
19 | O=C1CN(c2c(O)ccc(C3=CC4CCCN4C3)c2F)S(=O)(=O)N1 (centres unmarked) [Compound 139, 5-(2-fluoro-6-hydroxy-3-(2,3,5,7a-tetrahydro-1H-pyrrolizin-6-yl)phenyl)-1,2,5-thiadiazolidin-3-one 1,1-dioxide] | ≤ 1000 nM | ≤ 1000 nM
20 | O=C1CN(c2c(O)cc(CC3CCNC3)cc2F)S(=O)(=O)N1 (centres unmarked) [Compound 140, 5-(2-fluoro-6-hydroxy-4-(pyrrolidin-3-ylmethyl)phenyl)-1,2,5-thiadiazolidin-3-one 1,1-dioxide] | ≤ 1000 nM | ≤ 1000 nM
21 | O=C1CN(c2c(O)ccc(CC3CCNC3)c2F)S(=O)(=O)N1 (centres unmarked) [Compound 141, 5-(2-fluoro-6-hydroxy-3-(pyrrolidin-3-ylmethyl)phenyl)-1,2,5-thiadiazolidin-3-one 1,1-dioxide] | ≤ 1000 nM | ≤ 1000 nM
22 | O=C1CN(c2c(O)ccc(OC3CCNC3)c2F)S(=O)(=O)N1 (centres unmarked) [Compound 142, 5-(2-fluoro-6-hydroxy-3-(pyrrolidin-3-yloxy)phenyl)-1,2,5-thiadiazolidin-3-one 1,1-dioxide] | ≤ 1000 nM | > 1000 nM
